According to patent publication EP4623911A1, “PI4KB INHIBITORS FOR THE TREATMENT OF FATTY LIVER DISEASE” (ETH Zurich, priority 2024, dated 2025):
Entries after “also recorded” stand apart in the source; their conditions may differ.

Tests used:
murine NASH model = experiment: Murine NASH model (HFD, glucose/fructose drinking water, thermoneutral housing) treated with UCB9608; type: in vivo, mice
Description: To model NASH in murine liver, male C57BL/6N mice were challenged with HFD for 24 weeks in conjunction with 18.9 g/L glucose&23.1 g/L fructose containing drinking water under thermoneutral housing condition (29°C) for 12 weeks before the administration of UCB9608 through HFD (15 mg/kg) for another 12 weeks. Then the mice were analysed in EcoMRI for body composition measurement before 6 hours fasting, followed by dissection to harvest liver and sample blood.
Total RNA was extracted from adipose depots, liver or in vitro cell cultures via Trizol reagent (Invitrogen) according to the manufacturer's instructions. Genomic DNA was removed from the crude RNA samples by DNase treatment (NEB BioLabs). For individual sample, 1 µg of total RNA was used to convert into cDNA library by using the High-Capacity cDNA Reverse transcription kit (Applied Biosystems, 4368813). Quantitative PCR was performed using KAPA SYBR FAST Universal kit (Roche, KK4618) on ViiA7 (Applied Biosystems) and the relative transcript levels were normalized to […] expression via ΔΔCt method. Table 2: Sequences of qPCR primers used in this study.
Plasma collected from mice under different conditions was used to determine levels of lipolysis and liver injury. FFA levels were measured via NEFA assay kit (Wako NEFA kit). TG levels were determined via TG assay kit (Roche Trig/GB reagent). ALT (MAK052, Sigma) and AST (MAK055, Sigma) assay kits were used to determine ALT and AST activity according to the manufacturer's instructions. The absorbance was monitored using Synergy Gen5 Platereader.
Weight of liver pieces (50-100 mg) was recorded before homogenization by 1 mL isopropanol per 50 mg tissue. The homogenates were incubated at room temperature with rotating before spinning down to remove debris at 2000×g for 10 min and collect supernatant. The TG levels were determined (Roche Trig/GB reagent) in Synergy Gen5 Platereader and normalized to the weight of liver pieces.
For NASH cohort, livers were dissected and fixed with 4% PFA in PBS for 24 h at 4°C. The samples were sent to the University of Zurich for histologic analyses. Briefly, liver tissues were dehydrated and embedded in paraffin and underwent section at 3 µm. The slides were stained with hematoxylin and eosin (H&E) and Gomori Green Trichrome directly or stained with anti-cleaved Caspase 3 after antigen retrieval. Afterwards, the images were captured by digital slide scanners and the grade of steatosis, ballooning, inflammation and fibrosis were quantified via the NASH Clinical Research Network Scoring System (Kleiner,D.E. et al. Hepatology 41, (2005)). To perform ORO staining, the fixed samples were sectioned, and the slides were stained via Oil Red O solution, followed by counter-staining with eosin. The images were acquired by digital slide scanners.

steatotic human liver = experiment: Ex vivo normothermic machine perfusion of a steatotic human liver graft
Description: A human liver graft was perfused for 8 days, after being discarded from all Swiss transplant centers. Use of discarded grafts was approved by local authorities (Kantonale Ethik Kommission Zürich KEK Nr. 2017-000412). […] The liver was procured with a total ischemia time of 40 min after circulatory death of the donor. It was flushed with IGL-1 solution and perfused for 2 h with Belzer MPS at 8°C. The infrahepatic vena cava was closed with a suture and the hepatic artery, portal vein, suprahepatic vena cava and common bile duct were cannulated with steel cannulas. The graft was subsequently perfused with whole blood and a custom built normothermic perfusion machine (Eshmuminov,D. et al, Nat Biotechnol 38, (2020)). Hepatic arterial pressure was controlled to be 80/50 mmHg, allowing for an average flow of 0.25 L/min. A vasodilator, epoprostenol, was automatically infused to keep arterial flow stable. Oxygenation was automatically controlled with a setpoint partial pressure of oxygen equal to 12 kPa. Portal venous flow was controlled to be at 1 L/min, resulting in a pressure of 2 mmHg on average. Further, oxygenation of portal blood was automatically regulated to achieve 65% saturation in the vena cava. Use of an electric pinch valve further allowed for pressure regulation in the vena cava, keeping a constant pressure of 0 mmHg. Glucose levels were automatically controlled by using a real-time glucose sensor (CCIT) and automated insulin infusions, keeping glucose levels at 7 mmol/L from the second day of perfusion onwards. A dialysis bypass was used to clear waste metabolites and control haematocrit levels by using a fixed dialysate influx rate of 200 mL/h and an automatically controlled outflux. Liver function was well preserved for at least 6 days and cell viability, as monitored by ATP analysis and histology, remained until the end of perfusion. After 8 days of perfusion, the liver weight decreased to 1507g (without gallbladder) and was sent for pathological examination.
Perfusate was mixed with 6 units of red blood cell concentrate (A+), 5 units of fresh frozen […], one unit of thrombocytes and 200 mL of 20% human albumin (CSL Behring). An initial bolus of 2.25 g Tazobactam and 500 mg Methylprednisolone was administered after priming. During the perfusion, 1000 U of heparin were infused per hour. Further, 2.25 g of Tazobactam, 3.36 g of ursodesoxycholic acid and 500 mg of methylprednisolone were continuously infused per day. UCB9608 was administered as a daily bolus by adding 300 µL of 50 mM solution directly to the blood reservoir, targeting a final concentration in the perfusate of 10 µM. On the first day, a larger bolus of 600 µL was given.
Adipose depots, liver pieces, differentiated iBAs, HepG2, HEK293T and HEK293-AAV cell types were homogenized in RIPA buffer (50 mM Tris-HCl pH 7.4, 150 mM NaCl, 2 mM EDTA, 1.0% Triton X100, 0.5% sodium deoxycholate) with protease inhibitors (Complete, Roche) and phosphatase inhibitors (Halt phosphatase inhibitor cocktail, ThermoFisher). The homogenates were centrifuged at 12,000×g for 10 min at 4°C to remove debris and collect whole cell extract (WCE). The concentration of WCE was determined by DC Protein Assay (Bio-Rad). After boiling the sample with Lämmeli buffer at 95°C for 5 min, equal amount of proteins was loaded and separated on 12% SDS-PAGE. […]

[1] = NASH mice, 12 weeks after administration of UCB9608
[2] = liver histology, NASH mice, UCB9608 vs vehicle
[3] = UCB9608 daily, target concentration 10 µM, 8 days perfusion, unchanged in two control grafts

COc1ccc(NC(=O)N2CCN(c3nc(N)nc4c3cnn4C)[C@@H](C)C2)c(C)c1 [UCB9608]
transcript levels of inflammatory markers (murine NASH model; NASH livers, qPCR): mitigation | fibrosis-related marker expression (murine NASH model; NASH livers, qPCR, vs vehicle-treated control NASH mice): substantially ameliorated | TG levels in the plasma (murine NASH model; [1]): reduction; also recorded: reduced | lipolysis (plasma FFA levels) (murine NASH model; [1]): enhanced | ALT activity in the plasma (murine NASH model; NASH mice, UCB9608 12 weeks): reduction | AST activity in the plasma (murine NASH model; NASH mice, UCB9608 12 weeks): reduction | hepatic TG levels (murine NASH model; NASH mice, UCB9608 12 weeks): reduced | liver mass/body weight ratio (murine NASH model; NASH mice, UCB9608 12 weeks): reduced | body weight (murine NASH model; NASH mice, UCB9608 through HFD (15 mg/kg) for 12 weeks): significant loss | fat mass (murine NASH model; NASH mice, UCB9608 through HFD (15 mg/kg) for 12 weeks, EcoMRI): significant loss | NAFLD activity score (murine NASH model; [2]): significantly lower | fibrosis grade (murine NASH model; [2]): significantly lower | inflammation levels (murine NASH model; [2]): significantly lower | liver injury (murine NASH model; [2]): significantly lower | steatosis grade (murine NASH model; [2]): significantly lower | fatty acid oxidation (murine NASH model; liver of NASH mice, UCB9608 12 weeks): significant elevation | ATGL levels in human liver biopsies (steatotic human liver; [3]): substantially elevated | TG deposition in human liver biopsies (steatotic human liver; [3]): reduced | macrovesicular steatosis of the liver graft (steatotic human liver; after 8 days of perfusion, 15% before perfusion): less than 5% | bile acid excretion and oxygen consumption of the graft (steatotic human liver; during perfusion with UCB9608): normal | non-esterified fatty acids (NEFAs) from dialysate (steatotic human liver; during perfusion with UCB9608): detected
